What all share (type): functional
The test system of assay [1] is Staphylococcus aureus. Description: Antimicrobial activity against methicillin-susceptible Staphylococcus aureus Smith by NCCLS method.
Assay [2] relates to Staphylococcus aureus. Briefly: Antimicrobial activity against methicillin-susceptible Staphylococcus aureus infected iv dosed mouse assessed as survival rate after 1 hr of infection.
For assay [3], the system named is Enterococcus faecium. Description: Antimicrobial activity against vancomycin-resistant Enterococcus faecium KU1778 by NCCLS method.
Assay [4] deals with Staphylococcus aureus. Description: Antimicrobial activity against methicillin-resistant Staphylococcus aureus KMP9.
The subject of assay [5] is Moraxella catarrhalis. Briefly: Antimicrobial activity against Moraxella catarrhalis K1209 by NCCLS method.
Assay [6] concerns Streptococcus pneumoniae. Briefly: Antimicrobial activity against penicillin-resistant Streptococcus pneumoniae KT2524 by NCCLS method.
In assay [7] the test system is Haemophilus influenzae. Briefly: Antimicrobial activity against Haemophilus influenzae TH13 by NCCLS method.
Assay [8] deals with Streptococcus pyogenes. Description: Antimicrobial activity against Streptococcus pyogenes ATCC 112344 by NCCLS method.
For assay [9], the system named is Streptococcus pneumoniae. Description: Antimicrobial activity against penicillin-susceptible Streptococcus pneumoniae ATCC 49619 by NCCLS method.

SMILES strings stand for the structures.

Usually ED50 stands for the midpoint of the dose-response relation. For the molecule `C=C[C@]1(C)C[C@@H](OC(=O)CN2CCN(C(=O)CCn3cnc4c(N5CCC(N)C5)ncnc43)C(CC)C2)[C@]2(C)[C@H](C)CC[C@]3(CCC(=O)[C@@H]32)[C@@H](C)[C@@H]1O.Cl.Cl` (some centres undefined), the MIC in assay [1] was determined as 0.25 µg/mL; in assay [3], 0.125 µg/mL; in assay [4], 0.25 µg/mL; in assay [5] it was 0.125 µg/mL; in [6], 0.063 µg/mL; in [7], 4 µg/mL. Moreover, the MIC in assay [8] stood at 0.032 µg/mL; in [9] it was 0.063 µg/mL. Also, the ED50 in [2] was determined as 2.95 mg/kg.
As to `C=C[C@]1(C)C[C@@H](OC(=O)CN2CCN(C(=O)CCn3cnc4c(N5CC[C@H](CNC)C5)ncnc43)[C@@H](C)C2)[C@]2(C)[C@H](C)CC[C@]3(CCC(=O)[C@@H]32)[C@@H](C)[C@@H]1O.Cl.Cl`, the MIC in assay [1] worked out at 0.25 µg/mL; in [3] it was 0.25 µg/mL; in assay [4] it was 0.5 µg/mL; in assay [5], 0.125 µg/mL; in assay [6] it was 0.063 µg/mL; in assay [7], 2 µg/mL. The figures for the MIC in [8] and in assay [9] were 0.032 µg/mL and 0.063 µg/mL, respectively. Further, in assay [2], the ED50 was determined as 1.1 mg/kg.
With `C=C[C@]1(C)C[C@@H](OC(=O)CN2CCN(C(=O)CCn3cnc4c(N5CCC(N)C5)ncnc43)CC2C)[C@]2(C)[C@H](C)CC[C@]3(CCC(=O)[C@@H]32)[C@@H](C)[C@@H]1O.Cl.Cl` (some centres undefined), the MIC in [1] came to 0.25 µg/mL; in assay [3], 0.125 µg/mL; in assay [4] it was 0.5 µg/mL; in assay [5] it was 0.125 µg/mL; in [6], 0.063 µg/mL; in assay [7], 2 µg/mL. For the same molecule, the MIC in [8] stood at 0.032 µg/mL; in assay [9], 0.063 µg/mL. Further, in [2], the ED50 was 1.42 mg/kg.
On to `C=C[C@]1(C)C[C@@H](OC(=O)CN2CCN(C(=O)CCn3cnc4c(N5CCC(N)C5)ncnc43)C[C@H]2C)[C@]2(C)[C@H](C)CC[C@]3(CCC(=O)[C@@H]32)[C@@H](C)[C@@H]1O.Cl.Cl` (some centres undefined), for which the MIC was 0.25 µg/mL in [1]; 0.063 µg/mL in assay [3]; 0.5 µg/mL in assay [4]; 0.063 µg/mL in assay [5]; 0.063 µg/mL in [6]; 2 µg/mL in assay [7]. Moreover, the results for the MIC in assay [8] and in assay [9] were 0.016 µg/mL and 0.032 µg/mL, respectively. Moreover, the 50% effective dose (ED50) in assay [2] was determined as 1.42 mg/kg.
Consider `C=C[C@]1(C)C[C@@H](OC(=O)CN2CCN(C(=O)CCn3cnc4c(N5CCC(N)CC5)ncnc43)[C@@H](C)C2)[C@]2(C)[C@H](C)CC[C@]3(CCC(=O)[C@@H]32)[C@@H](C)[C@@H]1O.Cl.Cl`, for which the MIC stood at 0.25 µg/mL in assay [1]; 0.125 µg/mL in [3]; 0.5 µg/mL in assay [4]; 0.125 µg/mL in assay [5]; 0.063 µg/mL in [6]; 4 µg/mL in [7]. In addition, the MIC in assay [8] was found to be 0.032 µg/mL; in [9], 0.063 µg/mL. The ED50 in [2] amounted to 1.66 mg/kg.
As to `C=C[C@]1(C)C[C@@H](OC(=O)CN2CCN(C(=O)CCn3cnc4c(N5CC[C@@H](N)C5)ncnc43)[C@@H](C)C2)[C@]2(C)[C@H](C)CC[C@]3(CCC(=O)[C@@H]32)[C@@H](C)[C@@H]1O.Cl.Cl`, the MIC in [1] amounted to 0.125 µg/mL; in assay [3], 0.125 µg/mL; in assay [4] it was 0.25 µg/mL; in [5], 0.125 µg/mL; in assay [6], 0.032 µg/mL; in assay [7], 2 µg/mL. In addition, the MIC was determined as 0.016 µg/mL in assay [8] and 0.032 µg/mL in assay [9]. In addition, the ED50 in [2] is 1.56 mg/kg.
In the case of `C=C[C@]1(C)C[C@@H](OC(=O)CN2CC(C)N(C(=O)CCn3cnc4c(N5CCC(N)C5)ncnc43)CC2C)[C@]2(C)[C@H](C)CC[C@]3(CCC(=O)[C@@H]32)[C@@H](C)[C@@H]1O.Cl.Cl` (some centres undefined), the MIC in assay [1] was 0.25 µg/mL; in assay [3], 0.125 µg/mL; in [4], 0.25 µg/mL; in assay [5], 0.125 µg/mL; in [6], 0.063 µg/mL; in [7], 4 µg/mL. In addition, the MIC in [8] was 0.032 µg/mL; in assay [9] it was 0.063 µg/mL. For the same molecule, the ED50 in [2] stood at 3.13 mg/kg.
In the case of `C=C[C@]1(C)C[C@@H](OC(=O)CN2CCN(C(=O)CCn3cnc4c(N5CCC(N)C5)ncnc43)C(C)(C)C2)[C@]2(C)[C@H](C)CC[C@]3(CCC(=O)[C@@H]32)[C@@H](C)[C@@H]1O.Cl.Cl` (some centres undefined), the MIC in [1] stood at 0.125 µg/mL; in assay [3], 0.063 µg/mL; in [4] it was 0.125 µg/mL; in assay [5], 0.032 µg/mL; in [6] it was 0.032 µg/mL; in [7], 4 µg/mL. The MIC turned out to be 0.016 µg/mL in assay [8] and 0.032 µg/mL in assay [9]. In addition, the 50% effective dose (ED50) in assay [2] came out at 2.32 mg/kg.
In the case of `C=C[C@]1(C)C[C@@H](OC(=O)CN2CC(C)N(C(=O)CCn3cnc4c(N5CCC(N)C5)ncnc43)C(C)C2)[C@]2(C)[C@H](C)CC[C@]3(CCC(=O)[C@@H]32)[C@@H](C)[C@@H]1O.Cl.Cl` (some centres undefined), the MIC in assay [1] amounted to 0.125 µg/mL; in [3], 0.063 µg/mL; in assay [4], 0.125 µg/mL; in assay [5], 0.063 µg/mL; in [6] it was 0.016 µg/mL; in assay [7], 4 µg/mL. Also, the MIC in [8] and in [9] was 0.016 µg/mL in each case. Also, the ED50 in [2] was > 3.13 mg/kg.
For the molecule `C=C[C@]1(C)C[C@@H](OC(=O)CN2CCN(C(=O)CCn3cnc4c(N5CCC(CNC)C5)ncnc43)[C@@H](C)C2)[C@]2(C)[C@H](C)CC[C@]3(CCC(=O)[C@@H]32)[C@@H](C)[C@@H]1O.Cl.Cl` (some centres undefined), the MIC in assay [1] came out at 0.125 µg/mL; in assay [3], 0.25 µg/mL; in assay [4], 1 µg/mL; in assay [5], 0.125 µg/mL; in assay [6], 0.032 µg/mL; in [7], 2 µg/mL. Also, the MIC in [8] and in assay [9] was 0.063 µg/mL in each case. Moreover, the ED50 in assay [2] turned out to be 1.2 mg/kg.
Take `C=C[C@]1(C)C[C@@H](OC(=O)CN2CCN(C(=O)CCn3cnc4c(N5CCC(N)C5)ncnc43)C[C@@H]2C)[C@]2(C)[C@H](C)CC[C@]3(CCC(=O)[C@@H]32)[C@@H](C)[C@@H]1O.Cl` (some centres undefined): the MIC in assay [1] came to 0.25 µg/mL; in assay [3] it was 0.125 µg/mL; in assay [4] it was 0.5 µg/mL; in [5], 0.125 µg/mL; in [6], 0.063 µg/mL; in assay [7] it was 4 µg/mL. For the same molecule, the values for the MIC in assay [8] and in assay [9] were 0.032 µg/mL and 0.125 µg/mL, respectively. For the same molecule, the ED50 in assay [2] is 1.28 mg/kg.

Source of the values: ChEMBL document CHEMBL1139278 (2009).
